Measurements taken from ChEMBL document CHEMBL1201862, “PubChem BioAssay data set” (2004).
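Step 1: Grow cells in 96-well plates. Step 2: Expose to compound for 48 hours at 5 concentrations. Step 3: Interpolate endpoints linearly; if unreached, use highest concentration. The concentration for 50% growth inhibition is given as GI50.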 The source made the active and inactive calls. Cut-off read from the data, not from the text of the source: active = GI50 up to about 1.1 µM and inactive = higher.

How the values were obtained:
Experiment in all cases: NCI tumour cell line growth inhibition, 48 h
[1] = tested on: SK-MEL-28
[2] = tested on: MDA-N
[3] = tested on: UO-31
[4] = tested on: MDA-MB-231
[5] = tested on: HT-29
[6] = tested on: SNB-19
[7] = tested on: IGROV-1
[8] = tested on: ACHN
[9] = tested on: T47D
[10] = tested on: OVCAR-5
[11] = tested on: EKVX
[12] = tested on: NCI-H226
[13] = tested on: HCT-116
[14] = tested on: SF-295
[15] = tested on: MOLT-4
[16] = tested on: K562
[17] = tested on: SF-268
[18] = tested on: UACC-62
[19] = tested on: NCI-H522
[20] = tested on: RXF 393
[21] = tested on: A498
[22] = tested on: SK-MEL-5
[23] = tested on: HOP-62
[24] = tested on: SF-539
[25] = tested on: HCC 2998
[26] = tested on: BT-549
[27] = tested on: PC-3
[28] = tested on: NCI/ADR-RES
[29] = tested on: OVCAR-3
[30] = tested on: MDA-MB-435
[31] = tested on: KM12
[32] = tested on: SK-MEL-2
[33] = tested on: UACC-257
[34] = tested on: HCT-15
[35] = tested on: HOP-92
[36] = tested on: OVCAR-4
[37] = tested on: SN12C
[38] = tested on: MCF7
[39] = tested on: RPMI-8226
[40] = tested on: M14
[41] = tested on: SW-620
[42] = tested on: A549
[43] = tested on: COLO 205
[44] = tested on: TK-10
[45] = tested on: Hs-578T
[46] = tested on: U-251
[47] = tested on: CCRF-CEM
[48] = tested on: LOX IMVI
[49] = tested on: DU-145
[50] = tested on: OVCAR-8
[51] = tested on: 786-0
[52] = tested on: CAKI-1
[53] = tested on: Malme-3M
[54] = tested on: HL-60
[55] = tested on: NCI-H23
[56] = tested on: NCI-H460
[57] = tested on: SNB-75
[58] = tested on: SR
[59] = tested on: SK-OV-3

SMILES: C[C@H](NC(=O)C(C)(Cc1ccc(O)cn1)NC(=O)c1ccccc1)c1ccccc1 (stereo partly drawn)
- GI50 [1]: > 100 µM (inactive)
- GI50 [2]: > 100 µM (inactive)
- GI50 [3]: > 100 µM (inactive)
- GI50 [4]: > 100 µM (inactive)
- GI50 [5]: > 100 µM (inactive)
- GI50 [6]: > 100 µM (inactive)
- GI50 [7]: > 100 µM (inactive)
- GI50 [8]: > 100 µM (inactive)
- GI50 [9]: > 100 µM (inactive)
- GI50 [10]: > 100 µM (inactive)
- GI50 [11]: > 100 µM (inactive)
- GI50 [12]: > 100 µM (inactive)
- GI50 [13]: > 100 µM (inactive)
- GI50 [14]: > 100 µM (inactive)
- GI50 [15]: > 100 µM (inactive)
- GI50 [16]: > 100 µM (inactive)
- GI50 [17]: > 100 µM (inactive)
- GI50 [18]: > 100 µM (inactive)
- GI50 [19]: > 100 µM (inactive)
- GI50 [20]: > 100 µM (inactive)
- GI50 [21]: > 100 µM (inactive)
- GI50 [22]: > 100 µM (inactive)
- GI50 [23]: > 100 µM (inactive)
- GI50 [24]: > 100 µM (inactive)
- GI50 [25]: > 100 µM (inactive)
- GI50 [26]: > 100 µM (inactive)
- GI50 [27]: > 100 µM (inactive)
- GI50 [28]: > 100 µM (inactive)
- GI50 [29]: > 100 µM (inactive)
- GI50 [30]: > 100 µM (inactive)
- GI50 [31]: > 100 µM (inactive)
- GI50 [32]: > 100 µM (inactive)
- GI50 [33]: > 100 µM (inactive)
- GI50 [34]: > 100 µM
- GI50 [35]: > 100 µM (inactive)
- GI50 [36]: > 100 µM (inactive)
- GI50 [37]: > 100 µM (inactive)
- GI50 [38]: > 100 µM (inactive)
- GI50 [39]: > 100 µM (inactive)
- GI50 [40]: > 100 µM (inactive)
- GI50 [41]: > 100 µM (inactive)
- GI50 [42]: > 100 µM (inactive)
- GI50 [43]: > 100 µM (inactive)
- GI50 [44]: > 100 µM (inactive)
- GI50 [45]: > 100 µM (inactive)
- GI50 [46]: > 100 µM (inactive)
- GI50 [47]: > 100 µM (inactive)
- GI50 [48]: > 100 µM (inactive)
- GI50 [49]: > 100 µM (inactive)
- GI50 [50]: > 100 µM (inactive)
- GI50 [51]: > 100 µM (inactive)
- GI50 [52]: > 100 µM (inactive)
- GI50 [53]: > 100 µM (inactive)
- GI50 [54]: > 100 µM (inactive)
- GI50 [55]: > 100 µM (inactive)

SMILES: CN(C)CCCNC(=O)N/N=C/c1ccc([N+](=O)[O-])cc1
- GI50 [1]: > 100 µM (inactive)
- GI50 [2]: 82.4 µM (inactive)
- GI50 [3]: > 100 µM (inactive)
- GI50 [4]: > 100 µM (inactive)
- GI50 [5]: > 100 µM (inactive)
- GI50 [6]: > 100 µM (inactive)
- GI50 [7]: > 100 µM (inactive)
- GI50 [8]: > 100 µM (inactive)
- GI50 [9]: 86.1 µM (inactive)
- GI50 [10]: > 100 µM (inactive)
- GI50 [12]: > 100 µM (inactive)
- GI50 [56]: > 100 µM (inactive)
- GI50 [13]: > 100 µM (inactive)
- GI50 [14]: 78.2 µM (inactive)
- GI50 [57]: 25.4 µM (inactive)
- GI50 [15]: > 100 µM (inactive)
- GI50 [16]: > 100 µM (inactive)
- GI50 [17]: > 100 µM (inactive)
- GI50 [18]: > 100 µM (inactive)
- GI50 [58]: > 100 µM (inactive)
- GI50 [19]: > 100 µM (inactive)
- GI50 [21]: 66.4 µM (inactive)
- GI50 [22]: > 100 µM (inactive)
- GI50 [23]: > 100 µM (inactive)
- GI50 [24]: 82.2 µM (inactive)
- GI50 [25]: > 100 µM (inactive)
- GI50 [26]: > 100 µM (inactive)
- GI50 [27]: > 100 µM (inactive)
- GI50 [28]: > 100 µM (inactive)
- GI50 [29]: > 100 µM (inactive)
- GI50 [30]: > 100 µM (inactive)
- GI50 [31]: 95.3 µM (inactive)
- GI50 [32]: > 100 µM (inactive)
- GI50 [33]: > 100 µM (inactive)
- GI50 [34]: > 100 µM
- GI50 [37]: > 100 µM (inactive)
- GI50 [38]: 53.1 µM (inactive)
- GI50 [40]: > 100 µM (inactive)
- GI50 [41]: > 100 µM (inactive)
- GI50 [42]: > 100 µM (inactive)
- GI50 [43]: > 100 µM (inactive)
- GI50 [44]: > 100 µM (inactive)
- GI50 [45]: 46.7 µM (inactive)
- GI50 [46]: > 100 µM (inactive)
- GI50 [47]: > 100 µM (inactive)
- GI50 [59]: > 100 µM (inactive)
- GI50 [49]: > 100 µM (inactive)
- GI50 [50]: > 100 µM (inactive)
- GI50 [51]: > 100 µM (inactive)
- GI50 [52]: > 100 µM (inactive)
- GI50 [53]: 40.2 µM (inactive)
- GI50 [54]: > 100 µM (inactive)
- GI50 [55]: > 100 µM (inactive)
